How the values were obtained:
[1] = target: T1, purified Hemoglobin S (HbS) (Homo sapiens, UniProt P68871+P69905, E7V); assay: Modulation of hemoglobin oxygen affinity: oxygen equilibrium curves (HEMOX) in purified HbS; assay type: biochemical, human (homozygous sickle cell patients); conditions: compound at 30 μM; 25 μM purified HbS, 45 min at 37° C.
T1 construct: HbS was purified by a modified procedure; from tissue; host or cells: blood of homozygous sickle cell patients (CHORI); for the polymerization assay purified by the CRO VIRUSYS
Summary of the method: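 HbS from homozygous sickle cell patient blood, 25 μM in HEMOX buffer pH 7.4, incubated 45 min at 37° C with compound (30 μM unless noted). Air-saturated then deoxygenated with N2; p50 from Hill fit; delta p50% = (control p50 − treated p50)/control p50 × 100.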

[2] = target: T2, HbS/A (Homo sapiens, UniProt P68871+P69905, E7V); assay: R/T assay (relaxed-to-tense transition under deoxygenated conditions); assay type: biochemical, human (homozygous sickle cell patients); conditions: 3 μM HbS/A, % R remaining vs no treatment
T2 construct: A mixture of HbS/A was purified from blood; from tissue; host or cells: blood of homozygous sickle cell patients (CHORI)
Experimental: A relaxed-to-tense transition assay (“R/T assay”) was used to determine the ability of substituted benzaldehyde compounds to maintain the high-oxygen affinity relaxed (R) state of hemoglobin under deoxygenated conditions. This ability can be expressed as a “delta R” value (i.e., the change in the time-period of the R state after hemoglobin is treated with a compound, as compared to the period without treatment with the compound). Delta R is the % R to remaining after the compounds treatment compared with no treatment (e.g. if R % without treatment is 8% while with treatment with a target compound is 48% R at 30 μM, then % R is 40% for that compound.
A mixture of HbS/A was purified from blood obtained from homozygous sickle cell patients though the Hemoglobinopathy Center at Children's Hospital Oakland Research Institute (CHORI) with Institutional Review Board approval. HbS/A (at a final concentration of 3 μM) was incubated for 1 hr at 37° C. in presence or absence of compounds in […] potassium phosphate buffer, pH=7.4 and 30 μM 2, 3 diphosphoglycerate (DPG) in 96 well plates in a final volume of 160 μl. Compounds were added at different concentrations (3 μM to 100 μM final concentrations). Plates were covered with a Mylar film. After incubation was completed the Mylar cover was removed and the plates were placed in a Spectrostar Nano plate reader previously heated at 37° C. Five minutes later, N2 (flow rate=20 L/min) was flowed through the spectrophotometer. Spectroscopic measurements (300 nm to 700 nm) were taken every 5 min for 2 hours. Data analysis was performed by using linear regression from the data retrieved for all wavelengths.
Table 4 below lists the delta R values where + indicates a delta R of between 0 and 30, ++ indicates a delta R of between 30 and 50, and +++ indicates a delta R of 50 or greater. Unless noted otherwise, the compounds in Table 2 were tested at 30 μM.

[3] = tested on: whole blood; assay: Whole blood assay: oxygen equilibrium curves of whole blood; assay type: cell-based, human (homozygous sickle cell patients); conditions: compound at 1000 μM; hematocrit 20%, 1 hour at 37° C.
Experimental: Oxygen Equilibrium Curves (OEC) of whole blood before and after treatment with different concentrations of substituted benzaldehyde compounds were performed as follows using a HEMOX analyzer (TCS Scientific, New Hope, Pa.). Blood samples from homozygous sickle cell patients were obtained though the Hemoglobinopathy Center at Children's Hospital Oakland Research Institute (CHORI) with Institutional Review Board approval. The hematocrit was adjusted to 20% using autologous plasma and the blood samples were incubated for 1 hour at 37° C. in absence or presence of compounds. 100 μl of these samples were added to 5 mL of Hemox buffer (30 mM TES, 130 mM NaCl, 5 mM KCl, pH=7.4) at 37° C. and then transferred to the Hemox sample chamber. The samples were saturated with oxygen by flushing with compressed air for 10 minutes. The samples were then flushed with pure nitrogen and the respective absorbances of oxy- and deoxy-Hb are recorded as a function of the solution pO2. The oxygen equilibrium data were then fitted to the Hill Model to obtain values for p50. The deoxygenation curves for both whole blood alone (control) and whole blood in the presence of the compound were collected with the TCS software.
Table 5 below lists the delta p50% values where + indicates a delta p50% of between 0 and 29, ++ indicates a delta p50% of between 30 and 50, and +++ indicates a delta p50% of 50 or greater. Unless noted otherwise, the compounds in Table 2 were tested at 1000 μM.

[4] = target: T3, purified HBS (Homo sapiens, UniProt P68871+P69905, E7V); assay: Polymerization assay (delay time of HbS polymerization); assay type: biochemical, human (homozygous sickle cell patients); conditions: percent delay (% DT) vs HBS alone; 50 μM purified HBS, 1.8 M potassium phosphate pH 7.4
T3 construct: HbS was purified by a modified procedure; from tissue; host or cells: blood of homozygous sickle cell patients (CHORI); for the polymerization assay purified by the CRO VIRUSYS
Experimental: Polymerization assays are carried out in vitro using purified HBS exchanged into 1.8 M potassium phosphate buffer at pH 7.4. Using a slightly modified protocol (Antonini and Brunori, 1971), HbS is purified by the CRO VIRUSYS, from blood obtained from homozygous sickle cell patients through the Hemoglobinopathy Center at Children's Hospital Oakland Research Institute (CHORI) with Institutional Review Board approval. Compounds are prepared in 100% DMSO and a desired amount is added to 50 μM of purified HBS at a final DMSO concentration of 0.3%. Final potassium phosphate concentration is adjusted to 1.8 M using a combination of 2.5 M potassium phosphate stock solution and water at pH 7.4. The reaction mixture is incubated for an hour at 37° C. and then transferred into a 24-well plate for deoxygenation in a glove box containing 99.5% nitrogen and 0.5% oxygen. The 24-well plate is not covered and incubated at 4° C. on a plate cooler inside the glove box for one and a half hours. Fifty μL of the reaction mixture is transferred into a 96-well plate and the absorbance at 700 nm is measured every minute for one hour at 37° C. in a plate reader located inside the glove box. A plot of the absorbance against time is fitted using a Boltzman sigmoidal fit and the delay time (from zero to time at half Vmax) is measured. To compare and rank compounds, delay times are expressed as percent delay (% DT), which is defined as the difference in delay times for HBS/compound and HBS alone multiplied by 100 and divided by the delay time for HBS alone.
Compounds listed below have been tested in the polymerization assay. Activity ranges are defined by the number of dagger (†) symbols indicated. † denotes activity ≥40% but ≤80%; †† denotes activity >80% but ≤120%; ††† denotes activity >120% but ≤140%; †††† denotes activity >160%.

| Compound | delta p50% [1] | delta R ([2]; compound at 9 μM) | delta p50% Values for Whole Blood Assay [3] | delta R ([2]; compound at 30 μM) | % delta Delay [4] |
| --- | --- | --- | --- | --- | --- |
| COc1cc(C=O)c(OCc2cccnc2-c2cnn(C)c2C)cn1 [Compound 143, 5-((2-(1,5-dimethyl-1H-pyrazol-4-yl)pyridin-3-yl)methoxy)-2-methoxyisonicotinaldehyde] | ++ (a delta p50% of between 30 and 50) | + (a delta R of between 0 and 30) | + (a delta p50% of between 0 and 29) |  |  |
| COCCOc1cc(C=O)c(OCc2cccn3ccnc23)cn1 [Compound 179, 5-(imidazo[1,2-a]pyridin-8-ylmethoxy)-2-(2-methoxyethoxy) isonicotinaldehyde] | ++ (a delta p50% of between 30 and 50) | + (a delta R of between 0 and 30) | ++ (a delta p50% of between 30 and 50) |  |  |
| COc1cc(C=O)c(OCc2cccnc2C(C)(C)O)cn1 [Compound 183, 5-((2-(2-hydroxypropan-2-yl)pyridin-3-yl)methoxy)-2-methoxyisonicotinaldehyde] | +++ (a delta p50% of 50 or greater) |  | +++ (a delta p50% of 50 or greater) | ++ (a delta R of between 30 and 50) |  |
| COCCOc1cc(C=O)c(OCc2cccnc2-c2ccnn2C)cn1 [Compound 184, 2-(2-methoxyethoxy)-5-((2-(1-methyl-1H-pyrazol-5-yl)pyridin-3-yl)methoxy)isonicotinaldehyde] | ++ (a delta p50% of between 30 and 50) |  | +++ (a delta p50% of 50 or greater) | ++ (a delta R of between 30 and 50) |  |
| COc1cncc(OCc2cccnc2-c2ccnn2C(C)C)c1C=O [Compound 188, 3-((2-(1-isopropyl-1H-pyrazol-5-yl)pyridin-3-yl)methoxy)-5-methoxyisonicotinaldehyde] | +++ (a delta p50% of 50 or greater) |  | +++ (a delta p50% of 50 or greater) |  | ††† (activity >120% but ≤140%) |
| COc1cc(C=O)c(OCc2cccnc2-c2ncnn2C(C)C)cn1 [Compound 189, 5-((2-(2-isopropyl-2H-1,2,4-triazol-3-yl)pyridin-3-yl)methoxy)-2-methoxyisonicotinaldehyde] | ++ (a delta p50% of between 30 and 50) |  | +++ (a delta p50% of 50 or greater) |  | ††† (activity >120% but ≤140%) |
| COc1cc(C=O)c(OCc2cccnc2-c2c(C)cnn2C(C)C)cn1 [Compound 190, 5-((2-(1-isopropyl-4-methyl-1H-pyrazol-5-yl)pyridin-3-yl)methoxy)-2-methoxyisonicotinaldehyde] | +++ (a delta p50% of 50 or greater) |  | +++ (a delta p50% of 50 or greater) |  | ††† (activity >120% but ≤140%) |
| COc1cc(C=O)c(OCc2cccnc2-c2ccnn2CCO)cn1 [Compound 191, 5-((2-(1-(2-hydroxyethyl)-1H-pyrazol-5-yl)pyridin-3-yl)methoxy)-2-methoxyisonicotinaldehyde] | +++ (a delta p50% of 50 or greater) | + (a delta R of between 0 and 30) | +++ (a delta p50% of 50 or greater) |  |  |
| Cc1cn[nH]c1-c1ncccc1COc1c[nH]c(=O)cc1C=O [Compound 194, 5-((2-(4-methyl-1H-pyrazol-5-yl)pyridin-3-yl)methoxy)-2-oxo-1,2-dihydropyridine-4-carbaldehyde] | ++ (a delta p50% of between 30 and 50) | + (a delta R of between 0 and 30) | + (a delta p50% of between 0 and 29) |  |  |
| COc1cc(C=O)c(OCc2cccnc2-c2ccnn2C2CCCCC2)cn1 [Compound 196, 5-((2-(1-cyclohexyl-1H-pyrazol-5-yl)pyridin-3-yl)methoxy)-2-methoxyisonicotinaldehyde] | +++ (a delta p50% of 50 or greater) |  | ++ (a delta p50% of between 30 and 50) | ++ (a delta R of between 30 and 50) |  |
| COC(=O)CCn1nccc1-c1ncccc1COc1cnc(OC)cc1C=O [Compound 200, methyl 3-(5-(3-(((4-formyl-6-methoxypyridin-3-yl)oxy)methyl)pyridin-2-yl)-1H-pyrazol-1-yl)propanoate] | ++ (a delta p50% of between 30 and 50) | + (a delta R of between 0 and 30) | +++ (a delta p50% of 50 or greater) |  |  |
| COc1cc(C=O)c(OCc2cccnc2-c2ccn(CCC(=O)O)n2)cn1 [Compound 201, 3-(3-(3-((4-formyl-6-methoxypyridin-3-yloxy)methyl)pyridin-2-yl)-1H-pyrazol-1-yl)propanoic acid] | ++ (a delta p50% of between 30 and 50) | + (a delta R of between 0 and 30) | + (a delta p50% of between 0 and 29) |  |  |
| COc1cc(C=O)c(OCc2cccc(C(=O)O)c2)cn1 [Compound 203, 3-(((4-formyl-6-methoxypyridin-3-yl)oxy)methyl)benzoic acid] | +++ (a delta p50% of 50 or greater) | + (a delta R of between 0 and 30) |  |  | †† (activity >80% but ≤120%) |

From patent US10377741B2, “Substituted heteroaryl aldehyde compounds and methods for their use in increasing tissue oxygenation” (Global Blood Therapeutics, Inc., priority 2011, dated 2019)
